Test results: patent publication US12589087B2, “Enantiomer selective action on neurotransmission” (The Board of Trustees of the Leland Stanford Junior …, priority 2021, dated 2026)
Where two headings read alike, the source gives them in different places.

Columns and labels:
[1] = Metabolism in synaptosomes (GABA shunt, glutamate-glutamine cycle); format: in vitro ADME; details: mouse, mouse cerebral synaptosomes; synaptosomes preincubated with 100 μM, normal KRP buffer, 37° C.; read-out: synaptosomal concentration, estimated half life
Experimental: To each tube, a 5 μL aliquot of a test compound solution (final concentration 100 μM) in Buffer KRP or Buffer KRP alone were added. The samples were incubated for 15 min at 37° C., briefly chilled on ice, and then immediately centrifuged and washed twice by resuspension-centrifugation with Buffer S (0.5 mL). The pellets were then resuspended in Buffer KRP (500 μL). Samples were then immediately centrifuged or incubated for 5, 10, 15, 20, 25 or 30 min at 37° C. and then centrifuged and washed by resuspension-centrifugation with Buffer S (0.5 mL). Resulting pellets were resuspended in 170 μL of 0.1% aqueous formic acid, mixed with 330 μL of ACN.
To each tube, 5 μL of 2MeGlu solution (final concentration 100 μM) in Buffer KRP or Buffer KRP alone were added. The samples were incubated for 15 min at 37° C., briefly chilled on ice, and then immediately centrifuged and washed twice by resuspension-centrifugation with Buffer S (0.5 mL). The pellets were then resuspended in Buffer KRP (200 μL). Samples were then kept on ice or incubated for 10, 20, 30, 40 or 50 min at 37° C. and then chilled on ice. Then all samples were centrifuged, 200 μL of supernatants were collected, and the pellets were suspended in 200 μL of 80% ACN. Supernatants and pellet suspensions were diluted with 250 μL of ACN and 50 μL of 10 μM d5-Glu in water as internal standard.

[2] = system: mouse hippocampal slice cultures; assay: Kainic acid neurodegeneration in hippocampal slice cultures (propidium iodide); format: cell-based
Experimental: We employed a standard technique of ex vivo experimentation to determine the efficacy of 2MeGlu, 2MeGln, and 4APA to prevent neurodegeneration. Mouse hippocampal slice cultures were prepared and then exposed to one of the three test compounds at either 5 or 50 μM for one hour. Then media was changed to contain either 2 or 5 μM kanic acid (KA) for 24 hr. […] After 24, the amount of neurodegeneration was assayed with propidium iodide staining. Increasing the dose of KA led to greater neurodegeneration at 5 μM than at 2 μM.

[3] = system: mouse cerebral synaptosomes; assay: Synaptosomal neurotransmitter uptake assay; format: cell-based
Experimental: To each tube, 5 μL of a test compound solution (final concentration 10 μM) in Buffer KRP or Buffer KRP alone were added. Samples were incubated at 4° C. or 37° C. for 1, 10, or 30 min and then immediately centrifuged and washed twice by resuspension-centrifugation with Buffer S (0.5 mL). Resulting pellets were resuspended in 170 μL of 0.1% aqueous formic acid and mixed with 330 μL of ACN.
96-well plate experiments: 250 μL aliquots of the synaptosome suspension were transferred to two 0.8-mL 96 well plates, one on ice (0° C. samples only) and one in a thermoblock (37° C. samples only), and equilibrated for 10 min. 5 μL of a test compound (0.5 mM; final concentration: 10 μM) in Buffer KRP or Buffer KRP blank were added 10, 20 or 30 min before the incubation termination. “0 min” samples were prepared by placing the test compound solution in a separate pre-chilled V-shape bottom 2-mL 96 well plate; at the end of incubation 200 μL aliquots of all samples were transferred to the 2-mL 96 well plate and centrifuged (2,500 g for 15 min at 4° C.) immediately. The resulting pellets were rinsed with Buffer KRP, followed by centrifugation, twice, then resuspended in 200 μL of 60% ACN containing 2.5 μM Glu-d5 as internal standard and stored at −80° C. until analysis.
(§1) Synaptosome uptake and high potassium-induced release assays were performed as described in Example 1. Uptake assays used 250 μL aliquots of the synaptosome suspension transferred to a pre-chilled 0.8 mL 96 well plate. 5 μL of a test compound solution (0.5 mM; final concentration: 10 μM to compare directly to our previous work was added to each well and incubated at 0° C. or 37° C. After 10, 20 or 30 min, samples were chilled on ice and immediately sedimented (2,500 g for 15 min at 4° C.) and washed with Buffer S (0.5 mL, ×2). Resulting pellets were resuspended in 200 μL of 60% ACN containing 5 μM GABA-d6 and stored at −80° C. until analysis. Potassium-induced release assay used 500 μL aliquots of the synaptosome suspension transferred to pre-chilled microcentrifuge tubes. 2.5 μL of a test compound solution (20 mM; final concentration: 100 μM) in Buffer KRP was added to each tube and incubated for 15 min at 37° C., briefly chilled on ice, and then immediately sedimented (8,000 g for 4 min at 4° C.) and washed with Buffer KRP, followed by centrifugation, twice. The resulting pellets were resuspended in 500 μL of Buffer KRP or Buffer K-KRP and incubated for 5, 10 or 15 min at 37° C., sedimented (8,000 g for 4 min at 4° C.), and washed with Buffer KRP. Resulting pellets were resuspended in 400 μL of 60% ACN containing 2.5 μM GABA-d6 as internal standard and stored at −80° C. until analysis.

[4] = system: mouse cerebral synaptosomes; assay: Potassium-induced neurotransmitter release assay; format: cell-based; details: for synaptosome total GABA concentration following preincubation: 100 μM preincubation 15 min 37° C., vehicle 9.5±0.2; for reduction of synaptosome 4APA concentration by K+-induced membrane depolarization: 40 mM K+ vs 5 mM K+, 15 min; for endogenous GABA displaced in synaptosomes: once incorporated into synaptosomes
Experimental: To each tube, 2.5 μL of a test compound solution (final concentration 100 μM) in Buffer KRP or Buffer KRP alone were added. Samples were incubated for 15 min at 37° C., briefly chilled on ice, and then immediately centrifuged and washed twice with Buffer KRP. The resulting pellets were then resuspended in either Buffer KRP (500 μL) or Buffer K-KRP (500 μL). Samples were immediately centrifuged or incubated for 5, 10 or 15 min at 37° C., then centrifuged and washed with Buffer KRP. Resulting pellets were resuspended in 400 μL of 60% ACN containing 2.5 μM Glu-d5 and 2.5 μM Gln-d5 as internal standards.
as §1

C57Bl/6 mice = format: in vivo; details: for mortality after single dose: mouse, in vivo; for distance moved in the novel cage: single 100, 300, or 900 mg/kg IP, dose- and time-dependent
Experimental: Dosing: (R)-2MeGlu (30, 100, 300, or 900 mg/kg), (S)-2MeGlu (30, 100, 300, or 900 mg/kg), rac-2MeGln (30, 100, 300, or 900 mg/kg) and vehicle (PBS) were administered at 10 ml/kg IP dosing volume. Three mice were dosed once with the assigned drug (100, 300, or 900 mg/kg) or vehicle and immediately placed in a new cage for novel cage observation. Subsequently, six mice were dosed once with the assigned drug (30 or 100 mg/kg) or vehicle and tested by SHIRPA, activity chamber, and then hot plate tests.
The mouse was dosed and immediately placed in the center of a clean, Innovive disposable rat cage with bedding (dimensions: 17″L×13.4″W×7.8″H) and allowed to move freely while being tracked automatically. Mice were monitored with Ethovision XT tracking software for the distance moved and average velocity during the 60-minute trial. They were returned to their home cage after the test. A new cage was used for each mouse.
Exploratory behavioral tests were performed exactly as previously described by us using 2-month-old C57Bl/6 male mice, Example 1. First, we assessed safety and tolerability of acute exposure to 4APA enantiomers in 22 mice by novel cage observation at 100, 300, or 900 mg/kg IP compared to vehicle (PBS) IP (n=3 or 4 mice per group without sample calculation, based on our previous study. Next, we evaluated 24 drug naïve mice with a 23-measure battery of neurologic dysfunction in mice (SHIRPA) (Rogers et al., 2001), automated activity chamber assessment, and hot plate latency acutely following 30 or 100 mg/kg IP compared to vehicle IP (n=4 or 5 mice per group). No exclusion criteria were predetermined and no randomization was performed to allocate subjects in the study.

Line 61 mice = assay: Transgenic α-synuclein mouse model, tapered beam test; format: in vivo
Description: Line 61 mice overexpress human α-synuclein under control of the mouse Thy-1 promoter. The transgene is X-linked so females have variable transgene expression; for this reason, we focused on male mice. […] Categorical data from the tapered beam task were unblinded and analyzed by X square test (P<0.005).

human glutaminase GLS1 = target: T1, human glutaminase GLS1 (Homo sapiens, UniProt O94925); assay: Catalysis of 2MeGln hydrolysis by GLS1 glutaminase; format: biochemical; details: human GLS1
T1 construct: purchased Sigma SRP0516
T1 sequence (O94925 55-669): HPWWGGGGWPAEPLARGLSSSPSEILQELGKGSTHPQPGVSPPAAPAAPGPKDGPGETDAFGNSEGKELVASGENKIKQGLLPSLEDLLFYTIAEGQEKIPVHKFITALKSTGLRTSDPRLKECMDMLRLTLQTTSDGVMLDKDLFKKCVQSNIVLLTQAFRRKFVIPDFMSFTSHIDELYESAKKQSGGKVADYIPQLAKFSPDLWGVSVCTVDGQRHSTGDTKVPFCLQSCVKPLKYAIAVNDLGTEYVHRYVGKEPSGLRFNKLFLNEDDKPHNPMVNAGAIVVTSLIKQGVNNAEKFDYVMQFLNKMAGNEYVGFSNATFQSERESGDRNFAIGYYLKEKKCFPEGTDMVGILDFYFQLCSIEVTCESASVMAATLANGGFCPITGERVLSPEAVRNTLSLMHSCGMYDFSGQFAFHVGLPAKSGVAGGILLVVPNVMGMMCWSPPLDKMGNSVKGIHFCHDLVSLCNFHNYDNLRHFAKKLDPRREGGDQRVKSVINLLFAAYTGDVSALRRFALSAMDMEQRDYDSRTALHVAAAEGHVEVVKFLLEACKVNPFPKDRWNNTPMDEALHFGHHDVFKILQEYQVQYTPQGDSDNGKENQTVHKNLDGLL
Experimental: The procedure was adapted from an existing protocol. To a reaction mixture in a 1.5 mL microcentrifuge tube containing 10 mM rac-2MeGln or L-Gln-^13C2 in 100 mM phosphate pH 7.4 buffer made in 20% atom ^18O water, recombinant GLS1 (final concentration: 5 ng/mL) was added. The tubes were incubated in a preheated thermomixer at 37° C. and periodically shaken at 600 rpm (30 s on, 30 s off). 5 μL aliquots were collected in triplicate every 5 min and immediately diluted with 195 μL of cold 60% ACN containing 10 μM Glu-d5 and Gln-d5 as internal standards in a 96 well plate. After collecting all samples, the plate was shaken at 1000 rpm for 5 min at room temperature, and then stored at −80° C. Before analysis the plate was thawed and 10 μL aliquots of the extracted reaction mixtures were diluted with 190 μL of 90% acetonitrile.
The quantification of the newly formed 2MeGlu in the presence of the preexisting trace amounts was performed in the following way. Peak area ratio of Glu-^13C2 to Glu-^13C2^18O was calculated in all samples containing Glu-^13C2. The mean ratio value was then applied to calculate the hypothetical peak area of the newly formed 2MeGlu based on the directly measured 2MeGlu-^18O peak area. The ratio of the newly formed 2MeGlu peak area and the total 2MeGlu peak area was applied to calculate the concentration of the newly formed 2MeGlu from the total 2MeGlu concentration determined directly using the calibration curve.

Row | Compound | synaptosome concentration, % of (R)-4APA ([3]; 10 μM, 30 min at 37° C.) [%] | synaptosome total GABA concentration following preincubation [4] [nmol/mg protein] | reduction of synaptosome 4APA concentration by K+-induced membrane depolarization [4] | endogenous GABA displaced in synaptosomes [4] | mortality after single dose (C57Bl/6 mice) | distance moved in the novel cage (C57Bl/6 mice) | further results
1 | CC(N)(CCC(=O)O)C(=O)O (racemic) [rac-2MeGlu, rac-2-Methylglutamic acid] | – | – | – | – | – | – | half-life at 100 μM [1]: 21 min; reduction of neurodegeneration ([2]; 50 μM compound, lower dose of KA (2 μM)): approximately 50%; neuroprotection at the higher dose of KA ([2]; 5 or 50 μM compound, 5 μM KA): Neither dose of 2MeGlu or 2MeGln was neuroprotective
2 | CC(N)CCC(=O)O (racemic) [rac-4APA, (rac)-4-Aminopentanoic acid] | 78.5±3.8 | 4.4±0.4 | 62.2±8.6% | about 55% | – | – | transport into synaptosomes ([3]; 10 μM substrate, 37° C.): transported into synaptosomes; synaptosome Glu concentration ([4]; preincubation with compound): not significantly changed; potassium-induced release from synaptosomes ([4]; preloaded with 100 μM for 15 min at 37° C., high-potassium depolarization): high potassium concentration-dependent release; neuroprotection ([2]; 5 or 50 μM compound): not neuroprotective
3 | C[C@@H](N)CCC(=O)O [(R)-4APA, (R)-4-aminopentanoic acid] | – | 3.8±0.5 | 55.3±6.8% | about 55% | no mouse died | significantly decreased | synaptosome concentration of 4APA ([3]; 10 μM, 30 min at 37° C.): 9.3±0.6 nmol/mg protein; synaptosome uptake, faster than (S)-4APA ([3]; mouse synaptosomes): 4- to 5 fold; time post injection until not significantly different from vehicle, novel cage (C57Bl/6 mice; 300 mg/kg IP): 13 min; time post injection until not significantly different from vehicle, novel cage (C57Bl/6 mice; 900 mg/kg IP): 42 min; body weight or deaths (Line 61 mice; 5 or 50 mg/kg/d IP, seven days): no change in body weight or deaths; motor function, tapered beam (Line 61 mice; 7 days IP, high dose (50 mg/kg/d) S-2MeGlu, either dose (5 or 50 mg/kg/d) R-4APA): improved motor function similar to WT mice; α-synuclein accumulation in brain by immunohistochemistry vs vehicle (Line 61 mice; Line 61 mice): no significant change
4 | C[C@](N)(CCC(N)=O)C(=O)O [(S)-2MeGln, (S)-2-methylglutamine] | – | – | – | – | – | – | substrate of GLS1 (hydrolysis to 2MeGlu) (human glutaminase GLS1): substrates
5 | C[C@H](N)CCC(=O)O [(S)-4APA, (S)-4-aminopentanoic acid] | 22.8±0.8 | 6.0±0.6 | did not significantly reduce | approximately 30% | no mouse died | significantly decreased | –
